Test results as given in patent publication US8034314B2, “Photoreactive compound specifically binding to calcium binding proteins” (priority 2004, dated 2011).

Legend:
[1] = target: T1, ryanodine receptor (RyR) / Ca2+-release channel (Oryctolagus cuniculus, UniProt P11716); test: [3H]ryanodine binding to SR membranes; parameters: species or system rabbit; settings: no UV; mean ± SEM of 3 to 5 experiments
T1 construct: from tissue; host or cells: rabbit fast twitch skeletal muscle SR membranes
Experimental: (§1) Sarcoplasmic reticulum (SR) membranes were prepared from rabbit fast twitch skeletal muscle as described by Saito [Saito et al.: J. Cell Biol. 99 (1984) 875-85]. Mitochondria were isolated from rat liver as described by us previously [Gincel D. et al.: Biochem J. 358 (2001) 147-55]. VDAC was purified by a method developed in our laboratory, using columns of hydroxyapatite and reactive red agarose [Gincel D. et al.: J. Bioenerget. Biomembr. 32 (2000) 571-83].
For the determination of [^3H]ryanodine binding, SR membranes were incubated for 20-60 min at 37° C. in a standard binding solution containing 1M NaCl, 20 mM MOPS (pH 7.4), 50 μM free Ca^2+ and 20 nM [^3H]ryanodine. Unbound ryanodine was separated from protein-bound ryanodine by vacuum filtration of the sample through nitrocellulose filters (0.45 μm), followed by two washes with 4 ml ice-cold buffer containing 0.2 M NaCl, 10 mM MOPS (pH 7.4) and 50 μM CaCl2. The retained radioactivity in the dried filters was determined by liquid scintillation counting. Specific binding of [^3H]ryanodine was defined as the difference between the binding in the presence of 20 nM [^3H]ryanodine and in the presence of 20 μM unlabeled ryanodine.
(§2) The hexavalent RuR and the trivalent Ru360 have been employed in various studies as inhibitors of Ca^2+-dependent reactions. As shown here, even with no photoactivation, AzRu, in contrast to RuR and Ru360, was effective in inhibiting the SR Ca^2+-pump (Table 3). […] This may open the way to inhibit other Ca^2+-dependent activities that are not sensitive to RuR, such as the plasma membrane Ca^2+-ATPase. […] RuR was employed to improve mitochondrial production in ischemic reperfused pig myocardium, was employed in the nervous system to follow neuronal death progress and can act as an anti-oxidant in certain conditions. Considering the potent activity of AzRu in RuR-insensitive reactions (see Table 3), its applications in various biological studies should be explored. Ca^2+ accumulation in SR and mitochondria was assayed as described above in the absence and presence of different concentrations of RuR (0.05-100 μM), Ru360 (0.01-100 μM) or AzRu (0.1-100 μM). The concentration required for 50% inhibition (IC50) was derived from the plot of Ca^2+ accumulation activity or ryanodine binding as a function of the reagent concentration. The results are the mean±SEM of 3 to 5 experiments (Table 3).

[2] = tested on: mitochondrial uniporter (Ca2+ uptake in mitochondria); test: Ca2+ uptake/accumulation in isolated mitochondria; assay type: biochemical, rat; settings: no UV; mean ± SEM of 3 to 5 experiments
Experimental: as §1
Ca^2+-accumulation in freshly prepared mitochondria (0.5 mg/ml) was assayed for 1 to 20 minutes at 30° C. in the presence of 225 mM mannitol, 75 mM sucrose, 120 μM CaCl2 (containing 3×10^4 cpm/nmol ^45Ca^2+), 5 mM HEPES/KOH pH 7.0, and 5 mM succinate with 0.1 mM Pi, or 4 mM MgCl2 with 3 mM ATP. The Ca^2+-uptake was terminated by rapid Millipore filtration, followed by a wash with 5 ml of 0.15 M KCl. The Ca^2+-accumulation in SR was determined as described previously [Shoshan-Barmatz V. & Shaineberg A.: Biochim. Biophys. Acta 1065 (1991) 82-8]. Electron transport from succinate to cytochrome c was described in above cited article [Gincel D. et al.: J. Bioenerget. Biomembr. 32 (2000) 571-83].
The effect of AzRu on mitochondrial process of electron transport from the donor succinate to the acceptor cytochrome c was characterized as described above. Although said electron transfer involves several dozens electron transfer carriers, this reaction was not affected by azido-ruthenium of this invention.
as §2

T1 sequence (P11716 whole entry): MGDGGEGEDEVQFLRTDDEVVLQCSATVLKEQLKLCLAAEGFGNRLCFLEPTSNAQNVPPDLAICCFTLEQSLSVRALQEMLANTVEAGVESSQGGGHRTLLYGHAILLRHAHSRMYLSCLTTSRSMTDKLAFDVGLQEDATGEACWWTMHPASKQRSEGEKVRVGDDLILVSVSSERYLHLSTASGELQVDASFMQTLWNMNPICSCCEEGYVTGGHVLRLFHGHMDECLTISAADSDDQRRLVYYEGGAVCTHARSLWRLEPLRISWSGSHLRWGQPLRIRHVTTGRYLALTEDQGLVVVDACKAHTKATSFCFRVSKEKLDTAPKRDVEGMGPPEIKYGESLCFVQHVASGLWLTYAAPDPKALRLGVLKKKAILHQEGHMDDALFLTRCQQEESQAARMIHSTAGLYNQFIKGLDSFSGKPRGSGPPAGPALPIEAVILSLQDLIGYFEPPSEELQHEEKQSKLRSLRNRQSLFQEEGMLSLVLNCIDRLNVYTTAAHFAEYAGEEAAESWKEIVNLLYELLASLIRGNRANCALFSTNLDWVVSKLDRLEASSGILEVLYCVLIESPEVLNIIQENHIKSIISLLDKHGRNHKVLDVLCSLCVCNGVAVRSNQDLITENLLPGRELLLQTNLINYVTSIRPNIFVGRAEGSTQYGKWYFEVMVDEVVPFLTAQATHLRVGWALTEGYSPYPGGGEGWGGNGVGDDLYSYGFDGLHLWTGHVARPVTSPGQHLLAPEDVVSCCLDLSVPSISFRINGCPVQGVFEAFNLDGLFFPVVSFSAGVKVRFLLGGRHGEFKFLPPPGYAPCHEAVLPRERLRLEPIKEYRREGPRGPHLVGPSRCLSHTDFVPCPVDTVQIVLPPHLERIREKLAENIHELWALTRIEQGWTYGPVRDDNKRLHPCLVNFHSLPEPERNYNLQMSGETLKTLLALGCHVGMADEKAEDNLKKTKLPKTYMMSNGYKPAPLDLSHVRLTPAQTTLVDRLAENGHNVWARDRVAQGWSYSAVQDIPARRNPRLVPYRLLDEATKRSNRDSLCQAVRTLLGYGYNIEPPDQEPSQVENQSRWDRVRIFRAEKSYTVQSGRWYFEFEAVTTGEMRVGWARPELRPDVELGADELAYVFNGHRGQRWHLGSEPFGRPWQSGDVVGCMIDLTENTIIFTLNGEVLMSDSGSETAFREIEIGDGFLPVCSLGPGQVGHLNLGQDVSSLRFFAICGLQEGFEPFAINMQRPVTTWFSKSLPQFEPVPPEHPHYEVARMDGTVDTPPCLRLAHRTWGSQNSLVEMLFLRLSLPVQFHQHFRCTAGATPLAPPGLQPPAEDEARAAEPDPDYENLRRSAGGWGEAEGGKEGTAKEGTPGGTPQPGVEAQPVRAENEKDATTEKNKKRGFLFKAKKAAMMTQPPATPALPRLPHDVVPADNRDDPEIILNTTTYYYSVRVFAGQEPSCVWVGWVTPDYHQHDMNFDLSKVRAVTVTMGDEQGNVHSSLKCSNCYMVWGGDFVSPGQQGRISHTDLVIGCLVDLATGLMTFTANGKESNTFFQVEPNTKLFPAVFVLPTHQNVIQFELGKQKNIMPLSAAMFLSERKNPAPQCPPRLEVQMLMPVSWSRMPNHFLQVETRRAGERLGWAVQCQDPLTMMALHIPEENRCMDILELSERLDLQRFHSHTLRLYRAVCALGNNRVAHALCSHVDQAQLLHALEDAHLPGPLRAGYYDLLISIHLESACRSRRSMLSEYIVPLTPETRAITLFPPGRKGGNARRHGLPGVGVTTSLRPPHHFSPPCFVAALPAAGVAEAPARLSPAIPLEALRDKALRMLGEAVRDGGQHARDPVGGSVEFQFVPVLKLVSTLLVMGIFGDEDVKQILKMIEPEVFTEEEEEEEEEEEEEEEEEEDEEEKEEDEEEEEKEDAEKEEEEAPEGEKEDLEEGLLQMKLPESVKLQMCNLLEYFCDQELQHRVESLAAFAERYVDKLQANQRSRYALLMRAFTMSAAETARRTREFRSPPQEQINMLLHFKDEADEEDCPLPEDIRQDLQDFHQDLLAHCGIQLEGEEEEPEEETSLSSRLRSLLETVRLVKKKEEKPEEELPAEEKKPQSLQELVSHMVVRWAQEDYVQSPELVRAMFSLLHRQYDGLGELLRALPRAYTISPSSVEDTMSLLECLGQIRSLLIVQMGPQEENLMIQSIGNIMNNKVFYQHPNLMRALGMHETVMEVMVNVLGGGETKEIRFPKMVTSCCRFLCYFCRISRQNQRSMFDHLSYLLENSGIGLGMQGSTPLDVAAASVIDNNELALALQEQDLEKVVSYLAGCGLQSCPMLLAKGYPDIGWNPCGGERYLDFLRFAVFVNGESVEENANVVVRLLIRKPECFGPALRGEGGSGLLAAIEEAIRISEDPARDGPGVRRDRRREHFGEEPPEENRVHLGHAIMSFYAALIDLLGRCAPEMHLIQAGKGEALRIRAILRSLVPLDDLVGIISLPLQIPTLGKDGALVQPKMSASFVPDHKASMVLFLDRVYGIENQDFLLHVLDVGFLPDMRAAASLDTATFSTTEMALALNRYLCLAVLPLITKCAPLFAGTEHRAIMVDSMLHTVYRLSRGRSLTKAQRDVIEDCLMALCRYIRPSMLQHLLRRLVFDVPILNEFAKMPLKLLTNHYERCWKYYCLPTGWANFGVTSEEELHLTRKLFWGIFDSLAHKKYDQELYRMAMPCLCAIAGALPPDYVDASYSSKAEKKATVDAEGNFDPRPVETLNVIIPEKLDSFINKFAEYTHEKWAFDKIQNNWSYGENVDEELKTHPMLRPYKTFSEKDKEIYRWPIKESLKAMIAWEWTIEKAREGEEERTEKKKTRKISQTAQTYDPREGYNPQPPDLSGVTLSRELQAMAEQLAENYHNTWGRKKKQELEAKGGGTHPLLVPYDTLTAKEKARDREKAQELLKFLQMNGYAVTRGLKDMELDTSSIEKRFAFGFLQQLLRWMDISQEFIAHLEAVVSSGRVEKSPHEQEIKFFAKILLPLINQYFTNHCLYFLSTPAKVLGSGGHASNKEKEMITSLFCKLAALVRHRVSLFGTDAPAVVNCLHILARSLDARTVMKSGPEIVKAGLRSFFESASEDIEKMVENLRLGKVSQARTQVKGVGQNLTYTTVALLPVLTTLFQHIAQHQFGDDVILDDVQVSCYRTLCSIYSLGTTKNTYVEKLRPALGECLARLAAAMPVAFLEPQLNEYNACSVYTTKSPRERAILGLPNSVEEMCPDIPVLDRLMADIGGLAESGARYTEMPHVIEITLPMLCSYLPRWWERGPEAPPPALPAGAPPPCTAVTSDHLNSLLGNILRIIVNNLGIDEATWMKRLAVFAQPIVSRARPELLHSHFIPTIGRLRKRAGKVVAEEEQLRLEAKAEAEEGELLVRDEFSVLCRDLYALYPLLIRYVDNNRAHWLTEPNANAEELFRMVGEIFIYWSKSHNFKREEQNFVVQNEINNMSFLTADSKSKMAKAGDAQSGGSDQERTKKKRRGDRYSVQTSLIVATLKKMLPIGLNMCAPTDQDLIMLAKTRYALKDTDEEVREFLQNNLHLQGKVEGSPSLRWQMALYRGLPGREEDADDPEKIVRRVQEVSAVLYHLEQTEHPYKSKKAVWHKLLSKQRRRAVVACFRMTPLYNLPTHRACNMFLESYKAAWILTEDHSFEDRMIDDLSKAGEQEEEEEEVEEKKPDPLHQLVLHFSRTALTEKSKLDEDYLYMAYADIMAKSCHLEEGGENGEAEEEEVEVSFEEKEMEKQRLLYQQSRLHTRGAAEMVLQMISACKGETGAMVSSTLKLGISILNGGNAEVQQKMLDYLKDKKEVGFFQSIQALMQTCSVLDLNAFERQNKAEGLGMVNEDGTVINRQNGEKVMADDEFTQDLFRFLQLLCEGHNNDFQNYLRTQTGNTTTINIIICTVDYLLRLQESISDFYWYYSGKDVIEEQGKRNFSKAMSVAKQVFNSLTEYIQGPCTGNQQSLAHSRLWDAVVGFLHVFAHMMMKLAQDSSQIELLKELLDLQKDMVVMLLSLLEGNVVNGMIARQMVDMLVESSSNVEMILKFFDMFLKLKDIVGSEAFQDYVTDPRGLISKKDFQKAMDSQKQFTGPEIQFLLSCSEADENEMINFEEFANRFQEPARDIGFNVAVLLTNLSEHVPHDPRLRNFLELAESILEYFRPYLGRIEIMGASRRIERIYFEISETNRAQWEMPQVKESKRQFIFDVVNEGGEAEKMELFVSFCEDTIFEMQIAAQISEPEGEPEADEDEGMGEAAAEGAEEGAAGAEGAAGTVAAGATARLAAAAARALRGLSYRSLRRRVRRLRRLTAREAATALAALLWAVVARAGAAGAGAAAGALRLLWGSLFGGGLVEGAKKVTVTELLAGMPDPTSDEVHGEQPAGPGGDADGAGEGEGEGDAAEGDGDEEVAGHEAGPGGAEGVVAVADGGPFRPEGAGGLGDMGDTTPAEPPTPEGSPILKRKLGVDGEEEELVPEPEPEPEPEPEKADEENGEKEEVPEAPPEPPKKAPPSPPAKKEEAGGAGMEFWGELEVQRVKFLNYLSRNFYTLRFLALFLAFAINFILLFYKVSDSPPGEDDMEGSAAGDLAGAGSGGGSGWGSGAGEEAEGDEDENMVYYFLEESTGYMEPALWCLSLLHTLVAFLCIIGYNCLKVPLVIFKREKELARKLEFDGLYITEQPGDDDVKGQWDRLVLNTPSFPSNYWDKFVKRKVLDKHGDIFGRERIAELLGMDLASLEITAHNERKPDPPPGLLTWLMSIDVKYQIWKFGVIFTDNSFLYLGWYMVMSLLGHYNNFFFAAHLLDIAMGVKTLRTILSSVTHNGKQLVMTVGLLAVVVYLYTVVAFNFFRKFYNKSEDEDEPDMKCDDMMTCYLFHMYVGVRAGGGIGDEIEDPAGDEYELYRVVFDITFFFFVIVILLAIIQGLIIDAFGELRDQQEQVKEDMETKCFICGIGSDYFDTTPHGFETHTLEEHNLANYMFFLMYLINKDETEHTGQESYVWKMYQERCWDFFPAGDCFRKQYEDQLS

SMILES: Cl.Cl.Cl.Cl.Cl.Cl.N.N.N.N.N.N.N.N.N.N.N.N.N.N.[O-2].[O-2].[Ru+3].[Ru+3].[Ru+4] [RuR, ruthenium red, reference compound]
- IC50 [1]: 7.2 ± 0.55 µM
- IC50 [2]: 0.16 ± 0.03 µM
